Results from patent US20260000754A1, “NANOPARTICLES AS CARRIER-SYSTEM FOR ADJUVANTS/ANTIGENS” (UNIVERSITAT HEIDELBERG, priority 2020, published 2026).

Assays:
[1] = Solubility enhancement of epitopes (solubility in water); format: physicochemical
From the text: On the N-terminal site of the enzymatically cleaved linker the addition of polar amino acids can be used to enhance the solubility of the whole peptide. […] The use in a human vaccine is difficult. In animal studies researchers dissolve it in DMSO. The solubility after e.g. subcutaneous injection is questionable: dilution might result in precipitation of large peptide particles, which is very unfavorable for transport to lymphnodes.
According to the invention the epitope […] was enlarged on the N-terminal site with the enzymatic cleavable linker Val-Cit and the cationic solubilizing sequence Lys-Lys-Lys, leading to • KKKV-Cit-[…].
After endosomal and/or cytosolic cleavage by cathepsin B the native HPV 16 E782-90 is released. Also the remaining KKKV-Cit is not immunogenic, due to the fact it's too short to be presented at any MHC I or MHC II.

[2] = system: DC2.4 cells; test: MHC I cross presentation of OVA257-264 in DC2.4 cells; format: cell-based, murine; settings: 6 h incubation with 5 μM solution, with or without SiO2—PO3H2; 25-D1.16 antibody, flow cytometry
Procedure: In the experiment, the OVA257-264 presentation efficacy after incubation of 5·10^4 DC2.4 cells with 5 μM solutions of full length protein (OVA=Ovalbumin), N- and C-terminal elongated epitope (OVA247-264A5K, a so called synthetic long peptide (SLP)), N-terminal elongated epitope with a Cathepsin B cleavable sequence (exemplary shown RW-Cit-OVA257-264) or native epitope (OVA 257-264), each with and without nanoparticles, was compared. […] After an incubation time of 6 h, the test substances are removed by washing with phosphate-buffered saline (PBS). In the next step, the cells were incubated with CD16/CD32 antibody in order to block the non-specific binding of the detection antibody to the Fc (Fragment, crystallizable) receptor of the cells. After incubation with 25-D1.16 antibody, the amount of cross-presented OVA257-264 was quantified by flow cytometry.
FIG. 16: OVA257-264 MHC I presentation after 6 h incubation of H2-Kb positive cells with 5 μM solution of native or elongated OVA257-264 epitope or full length OVA protein with or without SiO2—PO3H2. Quantification was carried out by flow cytometry after labeling with 25-D1.16 detection antibody.

[3] = Stability measurement in human serum (HEK-Blue hTLR3 cell readout); format: in vitro ADME; settings: 20% human serum, 37° C., 1 μg poly(I:C)/mL
[4] = Stability measurement in bovine serum (HEK-Blue hTLR3 cell readout); format: in vitro ADME; settings: 60 minutes at 37° C., 5, 10 and 20% FBS
From the text: HEK-Blue™ hTLR3 Cells are designed to measure the stimulation of […] monitoring the activation of NF-kB. HEK-Blue™hTLR3Cells were obtained by co-transfection of the hTLR3 gene and an optimized secreted embryonic alkaline phosphatase (SEAP) reporter gene placed under the control of an NF-kB and AP-1-inducible promoter intoHEK293 cells. Stimulation with a TLR3 ligand activates NF-kB and AP-1 which induce the production of SEAP. Levels of SEAP can be easily determined with HEK-Blue™ Detection, a cell culture medium that allows for real-time detection of SEAP. The hydrolysis of the substrate by SEAP produces a purple/blue color that can be easily detected with the naked eye or measured with a 96 well plate reader (Invivogen).
The serum was used in concentrations of 5, 10 and 20%. A serum concentration of 20% corresponds quite well to the composition of peripheral lymph.
The poly(I:C) payload at SiO2—Arg in this case was about 2.5%. After exposure to FBS 20 μL of the medium were taken and added to 180 μL HEK-Blue™ hTLR3 cells in HEK-Blue™ Detection medium. This mixture was incubated for 13 hours at 37° C. and the plate was analyzed in a 96 well plate reader (Tecan Reader, Type: Infinite M200 Pro).

| Compound | solubility in water [1] | OVA257-264 MHC I presentation [2] | other results |
| --- | --- | --- | --- |
| CC[C@H](C)[C@H](NC(=O)CNC(=O)[C@H](CC(C)C)NC(=O)[C@@H](NC(=O)CNC(=O)[C@H](CCSC)NC(=O)[C@H](CC(C)C)NC(=O)[C@H](CC(C)C)NC(=O)[C@H](CCCNC(N)=O)NC(=O)[C@@H](NC(=O)[C@H](CCCCN)NC(=O)[C@H](CCCCN)NC(=O)[C@@H](N)CCCCN)C(C)C)[C@@H](C)O)C(=O)N[C@H](C(=O)O)C(C)C | excellent | – | – |
| CC[C@H](C)[C@H](NC(=O)CNC(=O)[C@H](CC(C)C)NC(=O)[C@@H](NC(=O)CNC(=O)[C@H](CCSC)NC(=O)[C@H](CC(C)C)NC(=O)[C@@H](N)CC(C)C)[C@@H](C)O)C(=O)N[C@H](C(=O)O)C(C)C | very bad | – | – |
| RW-Cit-OVA257-264 | – | presented in significant amounts | – |
| SIINFEKL [OVA257-264] | – | presented in significant amounts | – |
| polyinosinic: polycytidylic acid [poly(I:C)] | – | – | % of initial concentration after 60 minutes [3]: 18%; calculated half-life [3]: 24.2 min; stability in fetal bovine serum [4]: clear signs of degradation at higher serum concentrations |
